Results taken from US20250368633A1, “AZEPINE FUSED RING COMPOUND AS RIPK1 INHIBITOR AND USE THEREOF” (ARTIVILA BIOPHARMA, priority 2022, published 2025).

System: U937 cells
Test: EC50 of necroptosis inhibition in U937 cells (TSZ-induced, CellTiter-Glo)
Assay type: cell-based
Conditions: Homo sapiens, U-937; TSZ (hTNF-α, SM-164, Z-VAD-FMK) 20 hours; 10 concentration points; read-out: EC50 intervals of necroptosis inhibition in U937 cells
Method in brief: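 U937 cells pretreated 15 min with compound (10-point, 1:3 series), then necroptosis induced by TSZ (hTNF-α, SM-164, Z-VAD-FMK) for 20 h at 37 °C. Viability measured as ATP by CellTiter-Glo luminescence; inhibition normalised to untreated and TSZ-only wells, EC50 from four-parameter fit.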

Compound	EC50 [nM]
C[C@@H](NC(=O)C(=O)N[C@H]1COc2ccc(C#CCN3CCC(=O)CC3)cc2N(C)C1=O)c1ccccc1 [Example 139, N^1-((S)-5-methyl-4-oxo-7-(3-(4-oxopiperidin-1-yl)prop-1-yn-1-yl)-2,3,4,5-tetrahydrobenzo[b][1, 4]oxazepin-3-yl)-N^2-((R)-1-phenylethyl)oxalamide]	< 100
C[C@@H](NC(=O)C(=O)N[C@H]1COc2ccc(C#CCN3CCOCC3)cc2N(C)C1=O)c1ccccc1 [Example 140, N^1-((S)-5-methyl-7-(3-morpholinoprop-1-yn-1-yl)-4-oxo-2,3,4,5-tetrahydrobenzo[b][1,4]oxazepin-3-yl)-N^2-((R)-1-phenylethyl)oxalamide]	< 100
C[C@@H](NC(=O)C(=O)N[C@H]1COc2ccc(C#CCN3C(=O)CCC3=O)cc2N(C)C1=O)c1ccccc1 [Example 144, N^1-((S)-7-(3-(2,5-dioxopyrrolidin-1-yl)prop-1-yn-1-yl)-5-methyl-4-oxo-2,3,4,5-tetrahydrobenzo[b][1,4]oxazepin-3-yl)-N^2-((R)-1-phenylethyl)oxalamide]	< 100
C[C@@H](NC(=O)C(=O)N[C@H]1COc2ccc(C#CCN3CCNC(=O)C3)cc2N(C)C1=O)c1ccccc1 [Example 145, N^1-((S)-5-methyl-4-oxo-7-(3-(3-oxopiperazin-1-yl)prop-1-yn-1-yl)-2,3,4,5-tetrahydrobenzo[b][1, 4]oxazepin-3-yl)-N^2-((R)-1-phenylethyl)oxalamide]	< 100
C[C@@H](NC(=O)C(=O)N[C@H]1COc2ccc(C#CCN(C)C)cc2N(C)C1=O)c1ccccc1 [Example 146, N^1-((S)-7-(3-(dimethylamino)prop-1-yn-1-yl)-5-methyl-4-oxo-2,3,4,5-tetrahydrobenzo[b][1,4]oxazepin-3-yl)-N^2-((R)-1-phenylethyl)oxalamide]	< 100
C[C@@H](NC(=O)C(=O)N[C@H]1COc2ccc(C#CC3CN(CC#N)C3)cc2N(C)C1=O)c1ccccc1 [Example 148, N^1-((S)-7-((1-(cyanomethyl)azetidin-3-yl)ethynyl)-5-methyl-4-oxo-2,3,4,5-tetrahydrobenzo[b][1, 4]oxazepin-3-yl)-N^2-((R)-1-phenylethyl)oxalamide]	< 100
C[C@@H](CNC(=O)C(=O)N[C@H]1COc2ccc(C#CCCO)cc2N(C)C1=O)c1ccccc1 [Example 155, N^1-((S)-7-(4-hydroxybut-1-yn-1-yl)-5-methyl-4-oxo-2,3,4,5-tetrahydrobenzo[b][1,4]oxazepin-3-yl)-N^2-((R)-2-phenylpropyl)oxalamide]	< 100
C[C@H](CNC(=O)C(=O)N[C@H]1COc2ccc(C#CCCO)cc2N(C)C1=O)c1ccccc1 [Example 156, N^1-((S)-7-(4-hydroxybut-1-yn-1-yl)-5-methyl-4-oxo-2,3,4,5-tetrahydrobenzo[b][1,4]oxazepin-3-yl)-N^2-((S)-2-phenylpropyl)oxalamide]	< 100
C[C@@H](CNC(=O)C(=O)N[C@H]1COc2ccc(C#CC3(O)COC3)cc2N(C)C1=O)c1ccccc1 [Example 158, N^1-((S)-7-((3-hydroxyoxetan-3-yl)ethynyl)-5-methyl-4-oxo-2,3,4,5-tetrahydrobenzo[b][1,4]oxazepin-3-yl)-N^2-((R)-2-phenylpropyl)oxalamide]	< 100
C[C@@H](CNC(=O)C(=O)N[C@H]1COc2ccc(C#CCN3CCOCC3)cc2N(C)C1=O)c1ccccc1 [Example 159, N^1-((S)-5-methyl-7-(3-morpholinoprop-1-yn-1-yl)-4-oxo-2,3,4,5-tetrahydrobenzo[b][1,4]oxazepin-3-yl)-N^2-((R)-2-phenylpropyl)oxalamide]	< 100
CN1C(=O)C(NC(=O)C(=O)NCCc2cccc(F)c2)CCc2ccc(C#CCCO)cc21 (centres unmarked) [Example 167, N^1-(3-fluorophenethyl)-N^2-(8-(4-hydroxybut-1-yn-1-yl)-1-methyl-2-oxo-2,3,4,5-tetrahydro-1H-benzo[b]azepin-3-yl)oxalamide]	< 100
